This is an account of results in patent US9884818B2, “Sulphamoylpyrrolamide derivatives and the use thereof as medicaments for the treatment of hepatitis B” (Janssen Sciences Ireland UC, priority 2013, dated 2018).

Bounds are passed on as bounds.

In series [1] the test system is HBV. Briefly: Anti-HBV activity, HepG2.117 inducibly HBV producing cell line (Tet-off), intracellular HBV DNA by realtime PCR. The following applies: Hepatitis B virus, HepG2.117, 72 h, HepG2.117 cells, 3 days of treatment, intracellular HBV DNA; read-out: HepG2 117 EC50. The format is cell-based.
Series [2] is described as follows: Cytotoxicity in HepG2 cells, Resazurin viability assay. The following applies: human, HepG2 cells, HepG2 4 days CC50 (μM), incubated for 4 days, Resazurin assay.
Series [3] relates to HBV. Briefly: Anti-HBV activity, HepG2.2.15 stable transfected cell line, HBV DNA from secreted virions by realtime PCR. The format is cell-based. The following applies: Hepatitis B virus, HepG2.2.15, 144 h, HepG2.2.15 cells, 6 days of treatment, HBV DNA from secreted virions; read-out: HepG2 2.15 EC50.

In the case of `Cc1cccc(F)c1NC(=O)c1c(Cl)c(S(=O)(=O)N[C@H](C)C(F)(F)F)cn1C` [Compound 275, 3-chloro-N-(2-fluoro-6-methyl-phenyl)-1-methyl-4-[[(1R)-2,2,2-trifluoro-1-methyl-ethyl]sulfamoyl]pyrrole-2-carboxamide], the EC50 (commonly the concentration that produces a half-maximal response) with HBV [1] came out at 700 nM; in the series on HBV [3] it was 600 nM. The CC50 – broadly, the concentration giving 50% cytotoxicity – at 4 days in series [2] is above 25 µM.

For `C[C@@H](NS(=O)(=O)c1cn(C)c(C(=O)Nc2ccc(F)c(C#N)c2F)c1Cl)C(F)(F)F` [Compound 276, 3-chloro-N-(3-cyano-2,4-difluoro-phenyl)-1-methyl-4-[[(1R)-2,2,2-trifluoro-1-methyl-ethyl]sulfamoyl]pyrrole-2-carboxamide], the EC50 in the series on HBV [1] and in the series with HBV [3] was 10 nM throughout. Besides, the CC50 at 4 days in series [2] is above 25 µM.

With `C[C@@H](NS(=O)(=O)c1cn(C)c(C(=O)Nc2ccc(F)c(Cl)c2Cl)c1Cl)C(F)(F)F` [Compound 277, 3-chloro-N-(2,3-dichloro-4-fluoro-phenyl)-1-methyl-4-[[(1R)-2,2,2-trifluoro-1-methyl-ethyl]sulfamoyl]pyrrole-2-carboxamide], the EC50 was determined as 40 nM in the series on HBV [1] and 30 nM in the series with HBV [3]. The CC50 at 4 days in series [2] was above 25 µM.

As for `C[C@@H](NS(=O)(=O)c1cn(C)c(C(=O)Nc2ccc(F)c(C(F)F)c2F)c1Cl)C(F)(F)F` [Compound 278, 3-chloro-N-[3-(difluoromethyl)-2,4-difluoro-phenyl]-1-methyl-4-[[(1R)-2,2,2-trifluoro-1-methyl-ethyl]sulfamoyl]pyrrole-2-carboxamide], the results for the EC50 in the series with HBV [1] and in the series with HBV [3] were 10 nM and 6 nM, respectively. The same compound showed a CC50 at 4 days in series [2] above 25 µM.

In the case of `C[C@@H](NS(=O)(=O)c1cn(C)c(C(=O)Nc2ccc(F)c(C(F)F)c2)c1Cl)C(F)(F)F` [Compound 279, 3-chloro-N-[3-(difluoromethyl)-4-fluoro-phenyl]-1-methyl-4-[[(1R)-2,2,2-trifluoro-1-methyl-ethyl]sulfamoyl]pyrrole-2-carboxamide], the 50% effective concentration (EC50) in the series on HBV [1] was 5 nM; in the series on HBV [3], below 4 nM. The CC50 at 4 days in series [2] is above 25 µM.

Turning to `C[C@@H](NS(=O)(=O)c1cn(C)c(C(=O)Nc2cccc(Br)c2)c1F)C(F)(F)F` [Compound 280, N-(3-bromophenyl)-3-fluoro-1-methyl-4-[[(1R)-2,2,2-trifluoro-1-methyl-ethyl]sulfamoyl]pyrrole-2-carboxamide], the values for the EC50 with HBV [1] and in the series on HBV [3] were 60 nM and 5 nM, respectively. The compound further displayed a CC50 at 4 days in series [2] above 25 µM.

Take `Cn1cc(S(=O)(=O)NC2(C(F)(F)F)CCCC2)c(F)c1C(=O)Nc1ccc(F)c(C#N)c1` [Compound 281, N-(3-cyano-4-fluoro-phenyl)-3-fluoro-1-methyl-4-[[1-(trifluoro-methyl)cyclopentyl]sulfamoyl]pyrrole-2-carboxamide]: the EC50 in the series with HBV [1] is 7 nM; with HBV [3], below 4 nM. Also, the CC50 at 4 days in series [2] was above 25 µM.

As to `Cc1c(S(=O)(=O)N[C@H](C)C(F)(F)F)c(Cl)c(C(=O)Nc2ccc(F)c(C#N)c2)n1C` [Compound 282, 3-chloro-N-(3-cyano-4-fluoro-phenyl)-1,5-dimethyl-4-[[(1R)-2,2,2-trifluoro-1-methyl-ethyl]sulfamoyl]pyrrole-2-carboxamide], the EC50 was 5 nM with HBV [1] and below 5 nM in the series on HBV [3]. In series [2], this compound returned a CC50 at 4 days above 25 µM.

`Cc1cc(NC(=O)c2c(F)c(S(=O)(=O)N[C@H](C)C(F)(F)F)cn2C)cc(C#N)c1F` [Compound 283, N-(3-cyano-4-fluoro-5-methyl-phenyl)-3-fluoro-1-methyl-4-[[(1R)-2,2,2-trifluoro-1-methyl-ethyl]sulfamoyl]pyrrole-2-carboxamide]: the EC50 in the series with HBV [1] is 30 nM; with HBV [3], 20 nM. In series [2], this compound had a CC50 at 4 days above 25 µM.

As to `C[C@@H](NS(=O)(=O)c1cn(C)c(C(=O)Nc2ccc(F)c(C(F)F)c2F)c1F)C(F)(F)F` [Compound 287, N-[3-(difluoromethyl)-2,4-difluoro-phenyl]-3-fluoro-1-methyl-4-[[(1R)-2,2,2-trifluoro-1-methyl-ethyl]sulfamoyl]pyrrole-2-carboxamide], the figures for the EC50 in the series on HBV [1] and in the series with HBV [3] were 5 nM and 4 nM, respectively. In series [2], this compound showed a CC50 at 4 days above 25 µM.

For `CC[C@@H](NS(=O)(=O)c1cn(C)c(C(=O)Nc2ccc(F)c(C#N)c2)c1F)C(F)(F)F` [Compound 288, N-(3-cyano-4-fluoro-phenyl)-3-fluoro-1-methyl-4-[[(1R)-1-(trifluoro-methyl)propyl]sulfamoyl]pyrrole-2-carboxamide], the figures for the EC50 in the series on HBV [1] and in the series on HBV [3] were 10 nM and 7 nM, respectively. The compound also had a CC50 at 4 days in series [2] above 25 µM.

As for `CC[C@H](NS(=O)(=O)c1cn(C)c(C(=O)Nc2ccc(F)c(C#N)c2)c1Cl)C(F)(F)F` [Compound 289, 3-chloro-N-(3-cyano-4-fluoro-phenyl)-1-methyl-4-[[(15)-1-(trifluoro-methyl)propyl]sulfamoyl]pyrrole-2-carboxamide], the EC50 with HBV [1] was 50 nM; in the series on HBV [3], 40 nM. This compound registered a 50% cytotoxic concentration (CC50) at 4 days in series [2] above 25 µM.

For the compound `CC(C)n1cc(S(=O)(=O)N[C@H](C)C(F)(F)F)c(Cl)c1C(=O)Nc1ccc(F)c(C#N)c1` [Compound 291, 3-chloro-N-(3-cyano-4-fluoro-phenyl)-1-isopropyl-4-[[(1R)-2,2,2-trifluoro-1-methyl-ethyl]sulfamoyl]pyrrole-2-carboxamide], the values for the EC50 with HBV [1] and in the series with HBV [3] were 390 nM and 420 nM, respectively. In addition, the CC50 at 4 days in series [2] is above 25 µM.

Consider `C[C@@H](NS(=O)(=O)c1cn(C)c(C(=O)Nc2ccc(F)c(C#N)c2)c1C#N)C(F)(F)F` [Compound 293, 3-cyano-N-(3-cyano-4-fluoro-phenyl)-1-methyl-4-[[(1R)-2,2,2-trifluoro-1-methyl-ethyl]sulfamoyl]pyrrole-2-carboxamide], for which the EC50 with HBV [1] was 50 nM; in the series on HBV [3] it was 20 nM. The compound further registered a CC50 at 4 days in series [2] above 25 µM.

For `CC[C@@H](C)NS(=O)(=O)c1cc(C(=O)Nc2ccc(F)c(C#N)c2)n(C)c1` [Compound 294, N-(3-cyano-4-fluoro-phenyl)-1-methyl-4-[[(1R)-1-methylpropyl]-sulfamoyl]pyrrole-2-carboxamide], the values for the EC50 in the series with HBV [1] and in the series on HBV [3] were 100 nM and 40 nM, respectively. For the same compound, the CC50 at 4 days in series [2] was above 25 µM.

Take `CC[C@@H](C)NS(=O)(=O)c1cn(C)c(C(=O)Nc2ccc(F)c(C#N)c2)c1Cl` [Compound 295, 3-chloro-N-(3-cyano-4-fluoro-phenyl)-1-methyl-4-[[(1R)-1-methyl-propyl]sulfamoyl]pyrrole-2-carboxamide]: the concentration giving a half-maximal response (EC50) in the series on HBV [1] was 30 nM; in the series on HBV [3] it was 20 nM. In series [2], this compound yielded a cytotoxic concentration (CC50) at 4 days above 25 µM.

In the case of `Cn1cc(S(=O)(=O)NC(C)(C)CCO)cc1C(=O)Nc1ccc(F)c(C#N)c1` [Compound 296, N-(3-cyano-4-fluoro-phenyl)-4-[(3-hydroxy-1,1-dimethyl-propyl)sulfamoyl]-1-methyl-pyrrole-2-carboxamide], the figures for the EC50 in the series with HBV [1] and in the series on HBV [3] were 230 nM and 100 nM, respectively. The compound also displayed a CC50 at 4 days in series [2] above 25 µM.

Regarding `C[C@H](NS(=O)(=O)c1cc(C(=O)Nc2ccc(F)c(C#N)c2)n(C)c1)C(C)(F)F` [Compound 297, N-(3-cyano-4-fluoro-phenyl)-4-[[(1S)-2,2-difluoro-1-methyl-propyl]sulfamoyl]-1-methyl-pyrrole-2-carboxamide], the EC50 in the series on HBV [1] was 90 nM; in the series on HBV [3] it was 40 nM. Besides, the CC50 at 4 days in series [2] turned out to be 22.6 µM.

Regarding `C[C@@H](NS(=O)(=O)c1cc(C(=O)Nc2ccc(F)c(C#N)c2)n(C)c1)C(C)(F)F` [Compound 298, N-(3-cyano-4-fluoro-phenyl)-4-[[(1R)-2,2-difluoro-1-methyl-propyl]-sulfamoyl]-1-methyl-pyrrole-2-carboxamide], the EC50 with HBV [1] stood at 50 nM; in the series on HBV [3], 20 nM. Moreover, the half-maximal cytotoxic concentration (CC50) at 4 days in series [2] is 23.7 µM.

As to `C[C@@H](NS(=O)(=O)c1cn(C2CC2)c(C(=O)Nc2ccc(F)c(C#N)c2)c1Cl)C(F)(F)F` [Compound 305, 3-chloro-N-(3-cyano-4-fluoro-phenyl)-1-cyclopropyl-4-[[(1R)-2,2,2-trifluoro-1-methyl-ethyl]sulfamoyl]pyrrole-2-carboxamide], the EC50 worked out at 350 nM in the series on HBV [1] and 170 nM in the series with HBV [3]. In addition, the CC50 at 4 days in series [2] is above 25 µM.

`Cn1cc(S(=O)(=O)NC2(C)COC2)c(Cl)c1C(=O)Nc1ccc(F)c(C#N)c1` [Compound 306, 3-chloro-N-(3-cyano-4-fluoro-phenyl)-1-methyl-4-[(3-methyloxetan-3-yl)sulfamoyl]-pyrrole-2-carboxamide]: the EC50 with HBV [1] came to 60 nM; with HBV [3], 30 nM. Moreover, the CC50 at 4 days in series [2] is above 25 µM.

For `COCc1c(S(=O)(=O)N[C@H](C)C(F)(F)F)c(F)c(C(=O)Nc2ccc(F)c(C#N)c2)n1C` [Compound 309, N-(3-cyano-4-fluoro-phenyl)-3-fluoro-5-(methoxymethyl)-1-methyl-4-[[(1R)-2,2,2-trifluoro-1-methyl-ethyl]sulfamoyl]pyrrole-2-carboxamide], the 50% effective concentration (EC50) in the series on HBV [1] stood at 320 nM; with HBV [3], 530 nM. Also, the half-maximal cytotoxic concentration (CC50) at 4 days in series [2] is above 25 µM.

As for `C[C@@H](NS(=O)(=O)c1c(F)c(C(=O)Nc2ccc(F)c(C#N)c2)n(C)c1C#N)C(F)(F)F` [Compound 310, 5-cyano-N-(3-cyano-4-fluoro-phenyl)-3-fluoro-1-methyl-4-[[(1R)-2,2,2-trifluoro-1-methyl-ethyl]sulfamoyl]pyrrole-2-carboxamide], the figures for the EC50 in the series with HBV [1] and in the series with HBV [3] were 160 nM and 70 nM, respectively. This compound also came in with a CC50 at 4 days in series [2] above 25 µM.
